Reference: patent US20160077107A1, “PERSONALISED MEDICINE” (STICHTING KATHOLIEKE UNIVERSITEIT, priority 2013, published 2016)
“Also recorded” adds a separate entry of the source.

What was measured:
[1] = tested on: IL-1β production by human PBMCs; assay: IL-1β production by human PBMCs stimulated with PRR ligands with or without caspase-1 inhibitor (ELISA); type: cell-based; details: 24 h stimulation, 50 healthy donors
[2] = tested on: IL-1β production of PBMCs from gout patients; details: MSU or C16.0 alone; cited from earlier work

Molecule	induction of IL-1β production by human PBMCs [1]	release of IL-1β by the single component alone [2]
Flagellin	weak inducer	–
CC(=O)N[C@H]1C(O)O[C@H](CO)[C@@H](O)[C@@H]1O[C@H](C)C(=O)N[C@@H](C)C(=O)N[C@H](CCC(=O)O)C(N)=O (mixture of isomers) [MDP, Muramyl dipeptide]	strong inducers; also recorded: weak inducer	–
CCCCCCCCCCCCCCCC(=O)O [C16.0, Palmitic acid]	–	neither does
Pam3cys	strong inducers	–
